Numbers after ± are expanded uncertainties.

A short description of series [1]: molar heat capacity at constant pressure. The settings on record: 298.15 K, 101.33 kPa, Small sample (50 mg) DSC.
The conditions of series [2]: for mass density: 298.15 K, 101.33 kPa; for Normal melting temperature: DTA.
A short description of series [3]: Molar enthalpy of transition or fusion. The settings on record: Crystal; DSC.

The mass density is the mass of a sample divided by its volume. `CC(=O)c1ccco1` [2-acetylfuran]: the “molar heat capacity at constant pressure” value in series [1] (Crystal) amounted to 140.94 ± 6.6 J/K/mol. For the same molecule, in series [2] (Crystal), the mass density worked out at 1098 ± 5 kg/m3 and the Normal melting temperature was 28.47 ± 0.4 °C. Also, the “Molar enthalpy of transition or fusion” value in series [3] came to 15.5 ± 0.69 kJ/mol.

Take `CC(=O)c1ccc[nH]1` [2-acetylpyrrole]: the “molar heat capacity at constant pressure” value in series [1] (Crystal) worked out at 132.04 ± 6.5 J/K/mol. Further, the Normal melting temperature in series [2] (Crystal) turned out to be 89.82 ± 0.4 °C. Moreover, the “Molar enthalpy of transition or fusion” value in series [3] worked out at 14.1 ± 1.1 kJ/mol.

Regarding `CC(=O)c1cccs1` [2-acetylthiophene], in series [1] (Liquid), the “molar heat capacity at constant pressure” value was determined as 210.72 ± 10 J/K/mol. For the same molecule, the mass density in series [2] (Liquid) turned out to be 1171 ± 5 kg/m3.

Source of the values: the NIST ThermoML archive (doi:10.1016/j.tca.2009.04.012).
